The record followed here is ChEMBL document CHEMBL1201862, “PubChem BioAssay data set” (2004).

Some test systems named below: A549; ACHN; BT-549; CCRF-CEM; HCT-116; HL-60; HOP-62; HT-29; LOX IMVI; M14; NCI-H23; OVCAR-3; SK-MEL-2; SK-OV-3; SR; RXF 393; MDA-N; Malme-3M.
What all share (experiment): NCI tumour cell line growth inhibition, 48 h

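Step 1: Grow cells in 96-well plates. Step 2: Expose to compound for 48 hours at 5 concentrations. Step 3: Interpolate endpoints linearly; if unreached, use highest concentration. GI50 marks 50% less growth.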 Calls of active or inactive are those of the source. Rule as the data show it: active = GI50 up to about 1.1 µM and inactive = higher.

With `O=C(O)Cc1ccc(Oc2nc3ccccc3nc2C(=O)O)cc1`, the GI50 with A549 is > 100 µM (inactive); with ACHN, > 100 µM (inactive); in the assay on BT-549 it was > 100 µM (inactive); in the assay with CCRF-CEM, > 100 µM (inactive); with HCT-116, > 100 µM (inactive); with HL-60 it was 0.0305 µM (active). Further, the GI50 in the assay with HOP-62, in the assay on HT-29, with LOX IMVI, in the assay on M14, in the assay with NCI-H23 and in the assay with OVCAR-3 was > 100 µM (inactive) throughout. Further, the GI50 in the assay with SK-MEL-2 is > 100 µM (inactive); in the assay on SK-OV-3, > 100 µM (inactive); in the assay with SR, 0.0187 µM (active).
As for `CN(C)C1(N(C)C)Oc2c(c(=O)n(C)c(=O)n2C)C(c2ccc(C(F)(F)F)cc2)C1(F)F` (stereo not drawn), the GI50 with A549, in the assay on ACHN, in the assay on BT-549, in the assay with CCRF-CEM, in the assay on HCT-116 and with HOP-62 was > 100 µM (inactive) throughout. Further, the GI50 in the assay with LOX IMVI, in the assay on M14, with NCI-H23, in the assay on OVCAR-3, with RXF 393 and in the assay on SK-MEL-2 was > 100 µM (inactive) in each case. The GI50 in the assay on SK-OV-3 was > 100 µM (inactive).
With `CC1=C(C)SC(=C2Sc3c(n(C)c(=O)n(C)c3=O)S2)S1`, the GI50 is 42.5 µM (inactive) with A549; 45 µM (inactive) in the assay with ACHN; 57.1 µM (inactive) in the assay with BT-549; > 100 µM (inactive) in the assay with CCRF-CEM; 10.7 µM (inactive) with HCT-116; > 100 µM (inactive) in the assay with HL-60. Besides, the GI50 with HOP-62 was 18.7 µM (inactive); in the assay on HT-29 it was 76.9 µM (inactive); in the assay with LOX IMVI it was 48.5 µM (inactive); in the assay with M14, > 100 µM (inactive); in the assay on MDA-N, 47.6 µM (inactive); in the assay with Malme-3M, > 100 µM (inactive). Besides, the GI50 is 34.4 µM (inactive) in the assay on NCI-H23; 71.3 µM (inactive) in the assay with OVCAR-3; 48.4 µM (inactive) in the assay with RXF 393; 22.3 µM (inactive) in the assay with SK-MEL-2; 15.5 µM (inactive) in the assay on SK-OV-3.
Turning to `N#CC(C(=O)c1ccccc1F)c1nc2cc(C(F)(F)F)ccc2s1` (stereo not drawn), the GI50 with ACHN was 27.5 µM (inactive); in the assay with BT-549, 23 µM (inactive); with HCT-116, 19.2 µM (inactive); in the assay with HOP-62 it was 18.7 µM (inactive); in the assay with HT-29, 17.6 µM (inactive); with LOX IMVI, 17.6 µM (inactive). Moreover, the GI50 in the assay with Malme-3M is 19.6 µM (inactive); in the assay with NCI-H23 it was 19.7 µM (inactive); in the assay on OVCAR-3, 16.6 µM (inactive); in the assay with RXF 393, 24 µM (inactive); in the assay with SK-OV-3 it was 27 µM (inactive).
As for `CC(=O)c1cc(C)n2c1CS[C@@H]2c1ccccc1`, the GI50 with A549 is 53 µM (inactive); with ACHN, 68.2 µM (inactive); with BT-549, 37.2 µM (inactive); with CCRF-CEM, 16.3 µM (inactive); with HCT-116, 30.8 µM (inactive); with HL-60 it was 34 µM (inactive). Besides, the GI50 with HOP-62 is 83.9 µM (inactive); in the assay on HT-29 it was 46.3 µM (inactive); in the assay on LOX IMVI, 26.3 µM (inactive); in the assay on M14 it was > 100 µM (inactive); with Malme-3M, > 100 µM (inactive); in the assay on NCI-H23 it was 65.6 µM (inactive). Also, the GI50 in the assay on OVCAR-3 is 39.6 µM (inactive); in the assay with RXF 393, 31.5 µM (inactive); in the assay with SK-MEL-2, 98.9 µM (inactive); in the assay with SK-OV-3 it was > 100 µM (inactive); in the assay on SR it was 27 µM (inactive).
Turning to `O=C(Nc1ccc(N2C(=O)CSC2c2ccccc2O)cc1)c1ccc(N2C(=O)CSC2c2ccccc2O)cc1` (stereo not drawn), the GI50 in the assay with A549 is 40.7 µM (inactive); with ACHN, 35.6 µM (inactive); in the assay on BT-549, 87.1 µM (inactive); in the assay with CCRF-CEM, > 100 µM (inactive); in the assay with HCT-116, 88.3 µM (inactive); with HOP-62, 32.4 µM (inactive). The GI50 in the assay on HT-29 was > 100 µM (inactive); in the assay on LOX IMVI, 75.3 µM (inactive); with M14 it was 23.6 µM (inactive); with MDA-N it was 83.8 µM (inactive); in the assay with Malme-3M, 98.4 µM (inactive); in the assay with NCI-H23 it was 64.4 µM (inactive). Further, the GI50 is 84.7 µM (inactive) with OVCAR-3, 55.6 µM (inactive) in the assay on RXF 393, 84.7 µM (inactive) in the assay on SK-MEL-2 and 23 µM (inactive) in the assay on SK-OV-3.
On to `NC(=S)NS(=O)(=O)c1ccc(F)cc1`, for which the GI50 in the assay with A549, in the assay on ACHN, in the assay on BT-549, in the assay on CCRF-CEM, in the assay with HCT-116 and in the assay on HL-60 was > 100 µM (inactive) in each case. The GI50 with HOP-62, with HT-29, in the assay on LOX IMVI, with M14, in the assay with MDA-N and in the assay with Malme-3M was > 100 µM (inactive) throughout. For the same compound, the GI50 with NCI-H23, with OVCAR-3, with RXF 393, in the assay with SK-MEL-2 and with SK-OV-3 was > 100 µM (inactive) throughout.
Consider `CSc1nc(-c2ccccc2)[nH]c(=O)n1`, for which the GI50 is > 100 µM (inactive) with A549; > 100 µM (inactive) with ACHN; > 100 µM (inactive) in the assay with BT-549; > 100 µM (inactive) in the assay on CCRF-CEM; > 100 µM (inactive) in the assay on HCT-116; 54.5 µM (inactive) in the assay on HL-60. The GI50 was > 100 µM (inactive) in the assay with HOP-62; > 100 µM (inactive) with HT-29; > 100 µM (inactive) in the assay with M14; 59 µM (inactive) with Malme-3M; > 100 µM (inactive) with NCI-H23; > 100 µM (inactive) in the assay with OVCAR-3. In addition, the GI50 with RXF 393, with SK-MEL-2 and with SK-OV-3 was > 100 µM (inactive) each time.
On to `CC1(C)CC(=O)C(CC(C(=O)C(=O)Nc2cc(C(F)(F)F)ccc2Cl)C(=O)c2ccco2)C(=O)C1` (stereo not drawn), for which the GI50 in the assay on A549, in the assay with ACHN, in the assay on BT-549, in the assay with CCRF-CEM, with HCT-116 and in the assay with HL-60 was > 100 µM (inactive) each time. Moreover, the GI50 with HT-29, in the assay with LOX IMVI, with M14, with MDA-N, in the assay with Malme-3M and with NCI-H23 was > 100 µM (inactive) in each case. Further, the GI50 in the assay with OVCAR-3, with SK-MEL-2 and in the assay with SK-OV-3 was > 100 µM (inactive) throughout.
As to `COc1ccccc1N1CCN(Cn2c(=O)oc3cccnc32)CC1`, the GI50 in the assay with A549 was > 100 µM (inactive); in the assay on ACHN it was > 100 µM (inactive); in the assay with CCRF-CEM it was 66.7 µM (inactive); in the assay on HCT-116 it was 56.4 µM (inactive); with HL-60 it was > 100 µM (inactive); with HOP-62, > 100 µM (inactive). The GI50 in the assay on HT-29, in the assay with LOX IMVI, in the assay with M14, in the assay on MDA-N, in the assay with Malme-3M and with NCI-H23 was > 100 µM (inactive) in each case. Moreover, the GI50 was > 100 µM (inactive) in the assay with OVCAR-3; > 100 µM (inactive) in the assay on RXF 393; > 100 µM (inactive) in the assay on SK-MEL-2; > 100 µM (inactive) in the assay with SK-OV-3; 40.3 µM (inactive) with SR.
With `CC1C2=C(O)CC(C)(C)CC2=NC2=C1C(=O)CC(C)(C)C2` (stereo not drawn), the GI50 in the assay on A549, with ACHN, with BT-549, with CCRF-CEM, in the assay on HL-60 and with HT-29 was > 100 µM (inactive) throughout. Further, the GI50 in the assay on LOX IMVI, with M14, in the assay with NCI-H23, in the assay with OVCAR-3, in the assay with SK-OV-3 and in the assay on SR was > 100 µM (inactive) each time.
With `CC1CC[C@@]2(OC1)O[C@H]1[C@H](O)[C@H]3[C@@H]4CC[C@H]5C[C@@H](OC6OC(CO)C(OC7OC(CO)C(O)C(OC8OCC(O)C(O)C8O)C7OC7OC(CO)C(O)C(O)C7OC7OC(CO)C(O)C(O)C7O)C(O)C6O)[C@H](O)C[C@]5(C)[C@H]4CC[C@]3(C)[C@H]1[C@@H]2C` (stereo partly drawn), the GI50 in the assay on A549 was 3.47 µM (inactive); with ACHN it was > 10 µM (inactive); in the assay on BT-549, > 10 µM (inactive); in the assay with CCRF-CEM, 0.942 µM (active); in the assay with HCT-116, 4.59 µM (inactive); with HL-60, 1.54 µM (inactive). Further, the GI50 with HOP-62, in the assay on HT-29, in the assay with LOX IMVI, in the assay with M14, with MDA-N and in the assay on Malme-3M was > 10 µM (inactive) in each case. The GI50 was 5.24 µM (inactive) in the assay with NCI-H23, 2.85 µM (inactive) in the assay on OVCAR-3, > 10 µM (inactive) in the assay on RXF 393 and > 10 µM (inactive) in the assay on SK-MEL-2.
Take `O=C1/C(=C/c2ccccc2S)N=C(c2ccccc2)N1c1nc2ccc(Sc3ccccc3)cc2[nH]1`: the GI50 is 36.6 µM (inactive) with A549; 50.5 µM (inactive) with ACHN; 22.1 µM (inactive) with BT-549; 21 µM (inactive) in the assay with CCRF-CEM; 33.4 µM (inactive) in the assay on HCT-116; 19.8 µM (inactive) in the assay with HL-60. Also, the GI50 was 41.9 µM (inactive) in the assay with HOP-62; 20.2 µM (inactive) in the assay with HT-29; 34 µM (inactive) in the assay with LOX IMVI; 20.4 µM (inactive) with M14; 14.7 µM (inactive) in the assay with MDA-N; 37.8 µM (inactive) with Malme-3M. Besides, the GI50 in the assay with NCI-H23 was 37 µM (inactive); in the assay with OVCAR-3, 21.6 µM (inactive); in the assay on RXF 393 it was 28.2 µM (inactive); in the assay on SK-MEL-2, 17.8 µM (inactive); with SK-OV-3, 43.1 µM (inactive).
